Data from ChEMBL document CHEMBL1127062 (J Med Chem, 1993).

Target: Ryanodine receptor 1 (Oryctolagus cuniculus, UniProt P11716)
Assay: Affinity for sarcoplasmic reticular calcium release channel (SR CRC) of rabbit skeletal membrane vesicles

Chain of Ryanodine receptor 1 (P11716 whole entry): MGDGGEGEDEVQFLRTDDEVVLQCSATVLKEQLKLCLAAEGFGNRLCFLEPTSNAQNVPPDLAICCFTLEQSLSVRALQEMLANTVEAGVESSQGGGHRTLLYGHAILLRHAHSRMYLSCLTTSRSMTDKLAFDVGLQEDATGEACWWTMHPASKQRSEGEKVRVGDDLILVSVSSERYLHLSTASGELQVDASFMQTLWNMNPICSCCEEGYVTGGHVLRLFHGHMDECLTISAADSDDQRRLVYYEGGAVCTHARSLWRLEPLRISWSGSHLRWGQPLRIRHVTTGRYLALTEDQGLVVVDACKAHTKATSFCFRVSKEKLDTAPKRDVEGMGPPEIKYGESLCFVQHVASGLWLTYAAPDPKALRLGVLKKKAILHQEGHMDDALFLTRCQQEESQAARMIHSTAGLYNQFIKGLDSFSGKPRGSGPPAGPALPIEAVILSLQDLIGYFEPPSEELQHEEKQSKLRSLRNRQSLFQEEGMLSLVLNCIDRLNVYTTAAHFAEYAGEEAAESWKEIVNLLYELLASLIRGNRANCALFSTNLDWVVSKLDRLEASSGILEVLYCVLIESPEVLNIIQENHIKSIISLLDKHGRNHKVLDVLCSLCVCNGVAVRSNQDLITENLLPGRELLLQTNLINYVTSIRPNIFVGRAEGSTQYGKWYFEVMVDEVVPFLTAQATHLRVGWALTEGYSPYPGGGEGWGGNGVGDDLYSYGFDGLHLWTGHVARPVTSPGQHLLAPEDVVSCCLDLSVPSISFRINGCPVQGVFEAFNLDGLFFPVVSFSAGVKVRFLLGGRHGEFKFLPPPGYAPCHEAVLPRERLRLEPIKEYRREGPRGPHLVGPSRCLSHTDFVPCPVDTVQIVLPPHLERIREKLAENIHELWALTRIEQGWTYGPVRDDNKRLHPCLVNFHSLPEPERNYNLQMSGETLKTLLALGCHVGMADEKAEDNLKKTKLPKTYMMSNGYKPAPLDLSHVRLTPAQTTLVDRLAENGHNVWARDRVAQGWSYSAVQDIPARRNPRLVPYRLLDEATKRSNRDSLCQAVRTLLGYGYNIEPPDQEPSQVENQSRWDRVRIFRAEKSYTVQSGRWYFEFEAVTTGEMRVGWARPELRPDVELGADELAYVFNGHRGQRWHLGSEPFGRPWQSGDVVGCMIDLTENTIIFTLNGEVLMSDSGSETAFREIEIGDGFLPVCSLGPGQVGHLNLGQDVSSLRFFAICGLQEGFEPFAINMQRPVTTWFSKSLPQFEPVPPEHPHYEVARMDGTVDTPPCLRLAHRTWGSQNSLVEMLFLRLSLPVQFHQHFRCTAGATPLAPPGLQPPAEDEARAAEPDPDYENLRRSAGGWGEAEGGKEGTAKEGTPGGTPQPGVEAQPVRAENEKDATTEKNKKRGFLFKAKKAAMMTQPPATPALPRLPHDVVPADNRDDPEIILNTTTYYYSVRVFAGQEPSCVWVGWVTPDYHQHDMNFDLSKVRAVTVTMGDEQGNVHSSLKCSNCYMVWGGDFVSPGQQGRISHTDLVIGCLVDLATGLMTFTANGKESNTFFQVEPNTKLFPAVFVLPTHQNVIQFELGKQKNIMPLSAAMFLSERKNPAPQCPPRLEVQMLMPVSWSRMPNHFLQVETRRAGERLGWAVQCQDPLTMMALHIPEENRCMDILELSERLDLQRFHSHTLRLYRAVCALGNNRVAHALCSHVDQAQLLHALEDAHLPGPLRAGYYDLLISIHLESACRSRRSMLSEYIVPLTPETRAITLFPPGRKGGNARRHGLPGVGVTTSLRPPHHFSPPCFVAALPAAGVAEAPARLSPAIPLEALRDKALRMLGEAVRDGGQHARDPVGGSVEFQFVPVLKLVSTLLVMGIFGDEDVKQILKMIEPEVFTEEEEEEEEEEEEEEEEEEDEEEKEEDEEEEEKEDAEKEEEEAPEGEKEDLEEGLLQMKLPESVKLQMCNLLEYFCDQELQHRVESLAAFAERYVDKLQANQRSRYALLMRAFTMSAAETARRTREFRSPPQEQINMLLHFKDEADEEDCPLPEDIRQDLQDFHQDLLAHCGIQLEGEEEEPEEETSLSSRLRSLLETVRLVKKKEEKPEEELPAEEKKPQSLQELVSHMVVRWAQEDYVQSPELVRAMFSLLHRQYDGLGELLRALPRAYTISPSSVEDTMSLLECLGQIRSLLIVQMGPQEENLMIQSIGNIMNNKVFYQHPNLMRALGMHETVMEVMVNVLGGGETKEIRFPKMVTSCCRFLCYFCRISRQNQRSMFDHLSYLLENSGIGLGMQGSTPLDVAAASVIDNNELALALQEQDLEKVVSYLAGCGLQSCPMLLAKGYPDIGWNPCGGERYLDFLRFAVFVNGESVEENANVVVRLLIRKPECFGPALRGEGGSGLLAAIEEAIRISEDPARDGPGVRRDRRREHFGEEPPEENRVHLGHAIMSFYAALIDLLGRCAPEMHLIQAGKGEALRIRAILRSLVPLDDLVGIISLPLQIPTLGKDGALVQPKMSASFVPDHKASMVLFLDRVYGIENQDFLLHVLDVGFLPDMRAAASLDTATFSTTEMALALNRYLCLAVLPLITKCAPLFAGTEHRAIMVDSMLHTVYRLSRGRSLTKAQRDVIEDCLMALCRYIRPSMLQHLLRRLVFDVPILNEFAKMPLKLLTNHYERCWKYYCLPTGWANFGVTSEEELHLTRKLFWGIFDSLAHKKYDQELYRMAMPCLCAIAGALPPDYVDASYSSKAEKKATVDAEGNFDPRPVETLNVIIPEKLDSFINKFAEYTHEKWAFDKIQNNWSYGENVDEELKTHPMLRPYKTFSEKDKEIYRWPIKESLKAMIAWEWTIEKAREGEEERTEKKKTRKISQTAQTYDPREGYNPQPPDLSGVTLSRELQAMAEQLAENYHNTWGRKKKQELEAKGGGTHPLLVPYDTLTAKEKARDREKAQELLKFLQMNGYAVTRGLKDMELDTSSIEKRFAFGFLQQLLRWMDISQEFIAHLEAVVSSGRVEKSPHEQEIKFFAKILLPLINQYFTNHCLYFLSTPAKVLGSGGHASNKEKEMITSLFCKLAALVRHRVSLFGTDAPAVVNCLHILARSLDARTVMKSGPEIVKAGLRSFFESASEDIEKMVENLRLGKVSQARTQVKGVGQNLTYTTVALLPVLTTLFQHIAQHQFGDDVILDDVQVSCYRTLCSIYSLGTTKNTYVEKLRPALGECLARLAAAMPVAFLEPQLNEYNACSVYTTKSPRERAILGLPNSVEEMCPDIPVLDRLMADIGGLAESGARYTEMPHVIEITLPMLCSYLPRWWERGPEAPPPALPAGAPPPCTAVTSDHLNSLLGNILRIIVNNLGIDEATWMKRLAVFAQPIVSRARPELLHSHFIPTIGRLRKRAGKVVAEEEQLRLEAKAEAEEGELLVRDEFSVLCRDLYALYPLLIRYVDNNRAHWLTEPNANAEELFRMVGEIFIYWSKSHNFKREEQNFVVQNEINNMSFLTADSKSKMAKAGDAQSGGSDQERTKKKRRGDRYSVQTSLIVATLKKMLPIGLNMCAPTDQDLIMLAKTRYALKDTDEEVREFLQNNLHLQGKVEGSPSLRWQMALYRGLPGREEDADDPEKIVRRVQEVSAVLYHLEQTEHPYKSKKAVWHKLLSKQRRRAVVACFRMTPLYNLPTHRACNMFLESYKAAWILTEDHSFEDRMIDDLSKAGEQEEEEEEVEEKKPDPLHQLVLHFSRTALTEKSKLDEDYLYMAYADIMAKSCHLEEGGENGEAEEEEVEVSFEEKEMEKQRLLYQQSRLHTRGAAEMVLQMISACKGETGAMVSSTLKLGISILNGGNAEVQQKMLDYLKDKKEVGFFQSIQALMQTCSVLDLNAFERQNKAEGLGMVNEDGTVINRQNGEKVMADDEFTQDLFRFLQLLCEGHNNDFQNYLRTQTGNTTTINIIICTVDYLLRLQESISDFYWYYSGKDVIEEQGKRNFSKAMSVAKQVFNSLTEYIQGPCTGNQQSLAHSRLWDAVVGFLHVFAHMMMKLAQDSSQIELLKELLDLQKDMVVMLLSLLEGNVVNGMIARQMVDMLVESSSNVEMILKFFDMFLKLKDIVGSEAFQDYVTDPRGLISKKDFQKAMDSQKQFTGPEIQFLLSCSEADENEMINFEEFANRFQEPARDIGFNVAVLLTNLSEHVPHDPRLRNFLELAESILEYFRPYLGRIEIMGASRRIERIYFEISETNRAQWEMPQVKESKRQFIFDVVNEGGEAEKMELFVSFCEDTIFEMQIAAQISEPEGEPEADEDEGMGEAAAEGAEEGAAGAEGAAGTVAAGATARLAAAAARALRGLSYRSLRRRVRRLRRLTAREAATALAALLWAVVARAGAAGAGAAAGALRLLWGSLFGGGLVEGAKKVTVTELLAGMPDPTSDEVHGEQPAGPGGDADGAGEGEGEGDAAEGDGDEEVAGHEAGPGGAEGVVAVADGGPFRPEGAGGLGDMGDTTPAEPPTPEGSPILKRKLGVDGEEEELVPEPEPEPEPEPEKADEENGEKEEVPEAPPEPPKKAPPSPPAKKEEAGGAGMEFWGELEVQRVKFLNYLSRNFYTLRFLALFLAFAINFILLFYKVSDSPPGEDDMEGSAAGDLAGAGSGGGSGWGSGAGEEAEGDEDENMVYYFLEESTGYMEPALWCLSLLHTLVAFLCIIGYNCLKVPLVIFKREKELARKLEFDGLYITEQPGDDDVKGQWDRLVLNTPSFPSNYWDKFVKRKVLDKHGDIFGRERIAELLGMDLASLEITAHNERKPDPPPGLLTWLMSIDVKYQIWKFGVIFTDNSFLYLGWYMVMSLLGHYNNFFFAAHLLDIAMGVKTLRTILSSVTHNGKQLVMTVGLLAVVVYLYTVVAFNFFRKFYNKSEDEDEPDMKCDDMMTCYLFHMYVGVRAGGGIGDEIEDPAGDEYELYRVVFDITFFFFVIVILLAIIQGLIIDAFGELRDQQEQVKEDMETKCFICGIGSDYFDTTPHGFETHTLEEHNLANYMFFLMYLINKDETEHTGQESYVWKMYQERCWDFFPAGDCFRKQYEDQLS

Row | Compound | IC50 [nM]
1 | CC1CCC2(O)C3(OC4(O)C[C@]2(C)C2(O)[C@H](OC(=O)c5ccc[nH]5)C(O)(C(C)C)C4(C)C32O)[C@@H]1OC(=O)CNC(=O)OCc1ccccc1 (some centres not stated) | 4.8
2 | C=C1CCC2(O)C3(OC4(O)C[C@]2(C)C2(O)[C@H](OC(=O)c5ccc[nH]5)C(O)(C(C)C)C4(C)C32O)[C@@H]1O (stereo in doubt) [ANHYDRORYANIDINE] | > 10000
3 | CC1CCC2(O)C3(OC4(O)C[C@]2(C)C2(O)[C@H](OC(=O)c5ccc[nH]5)C(O)(C(C)C)C4(C)C32O)[C@@H]1OC(=O)CCN=C(NC(=O)OCc1ccccc1)NC(=O)OCc1ccccc1 (some centres not stated) | 43.6
4 | CC1CCC2(O)C3(OC4(O)C[C@]2(C)C2(O)[C@H](OC(=O)c5ccc[nH]5)C(O)(C(C)C)C4(C)C32O)[C@@H]1OC(=O)CCNC(=O)OCc1ccccc1 (some centres not stated) | 5.9
5 | CNC(=O)CCC(=O)O[C@@H]1C(C)CCC2(O)C13OC1(O)C[C@]2(C)C2(O)[C@H](OC(=O)c4ccc[nH]4)C(O)(C(C)C)C1(C)C32O (some centres not stated) | 49.4
6 | C=C1CCC2(O)C3(OC4(O)C[C@]2(C)C2(O)[C@H](OC(=O)c5ccc[nH]5)C(O)(C(C)C)C4(C)C32O)[C@@H]1O (stereo in doubt; 2) [ANHYDRORYANIDINE] | 8.9
7 | CC1CCC2(O)C3(OC4(O)C[C@]2(C)C2(O)[C@H](OC(=O)c5ccc[nH]5)C(O)(C(C)C)C4(C)C32O)[C@@H]1OC(=O)CCC(=O)O (some centres not stated) | > 1000
8 | CC1CCC2(O)C3(OC4(O)C[C@]2(C)C2(O)[C@H](OC(=O)c5ccc[nH]5)C(O)(C(C)C)C4(C)C32O)[C@@H]1OC(=O)CNC(=NC(=O)OCc1ccccc1)NC(=O)OCc1ccccc1 (some centres not stated) | 136
9 | CC1CCC2(O)C3(OC4(O)C[C@]2(C)C2(O)[C@H](OC(=O)c5ccc[nH]5)C(O)(C(C)C)C4(C)C32O)[C@@H]1OC(=O)CCN (some centres not stated) | 2.6
10 | CC1CCC2(O)C3(OC4(O)C[C@]2(C)C2(O)[C@H](OC(=O)c5ccc[nH]5)C(O)(C(C)C)C4(C)C32O)[C@@H]1OC(=O)CNC(=N)N (some centres not stated) | 1.8
11 | CC1CCC2(O)C3(OC4(O)C[C@]2(C)C2(O)[C@H](OC(=O)c5ccc[nH]5)C(O)(C(C)C)C4(C)C32O)[C@@H]1OC(=O)CN (some centres not stated) [GLYCYLRYANODINE] | 1.8
12 | CC1CCC2(O)C3(OC4(O)C[C@]2(C)C2(O)[C@H](OC(=O)c5ccc[nH]5)C(O)(C(C)C)C4(C)C32O)[C@@H]1OC(=O)CCN=C(N)N (some centres not stated) | 1.1
